According to patent US11945779B2, “Inhibitors of cancer metastasis through inhibiting migration and invasion of cancer cells” (VSpharmtech, priority 2018, dated 2024):

Key:
[1] = test system: prostate cancer cell line DU145; experiment: Trans-well cancer cell migration inhibition, DU145; type: cell-based; settings: for IC50: Homo sapiens, DU-145, Prostate cancer cell DU145, read-out: Concentration inhibiting migration of cancer cells by 50% (IC50 value)
Protocol: (§1) In order to analyze cancer cell migration inhibitory activity of CG-608, CG-609 or CG-618 prepared in Examples 1, 2, or 9, cell migration inhibitory activity was measured using a trans-well by targeting a colon cancer cell line DLD-1 (ATCC-CCL-221), pancreatic cancer cell lines AsPc-1 (ATCC-CCL-1682). CFPAC-1 (ATCC-CCL-1918). Panc-1 (ATCC-CCL-1469), and Miapaca-2 (ATCC-CCL-1420), a skin cancer cell line A375-P (ATCC-CCL-3224), lung cancer cell lines HCC-827 (ATCC-CCL-2868), A549 (ATCC-CCL-185), and NCI-H460 (ATCC-CCL-177), a prostate cancer cell line DU145 (ATCC-HTB-81), a stomach cancer cell line NuGC-3 (JCRB0822), and an ovarian cancer cell line SKOV-3 (ATCC-HTB-77).
(§2) First, the number of DLD-1 cells was measured using a hemocytometer in an RPMI medium without FBS. Thereafter, the trans-well was placed on a 24-well plate and 8×10^4 […] of cells were added. In an empty space with the trans-well on the well plate, […] of an RPM medium having 10% FBS containing CG-608, CG-609, or CG-618 was added and cultured in a CO2 incubator at 37° C. for 16 hours. After culture, […] of crystal violet (5 mg/mL of 20% […] was added to each well of the 24-well plate and the trans-well was dyed at room temperature for 30 minutes. The dyed trans-well was washed with PBS and non-migrated cells were wiped off with cotton swabs. The prepared sample was photographed with an inverted microscope mounted with a digital camera (TE 300, Nikon. Japan) and then the number of migrated cells was counted. The degree of inhibiting cell migration was calculated by Equation 1 for a group treated with the sample compared to a control group (DMSO).
(§3) In Equation 1, ‘the number of migrated cells treated with sample’ refers to the number of migrated cells measured by treating CG-608 or CG-618 of Example 1, and ‘the number of migrated cells of a control sample’ refers to the number of migrated cells measured by treating only 1% dimethyl sulfoxide (DMSO) instead of the compound.

[2] = test system: stomach cancer cell line NuGC-3; experiment: Trans-well cancer cell migration inhibition, NuGC-3; type: cell-based; settings: for IC50: Homo sapiens, Gastric cancer cell NuGC-3, read-out: Concentration inhibiting migration of cancer cells by 50% (IC50 value)
Protocol: as §1, §2, §3

[3] = test system: colon cancer cell line DLD-1; experiment: Cytotoxicity / proliferation analysis (WST-1), DLD-1; type: cell-based, human; settings: DLD-1, FIG. 8
Protocol: (§4) In order to verify cytotoxicity of CG-608 to CG-610 and CG-613 to CG-618 prepared in Examples 1 to 9, human colon cancer cell line DLD-1 cells (ATCC-CCL-221), pancreatic cancer cell line AsPc-1 cells (ATCC-CRL-1682), and normal cells MCF10A (ATCC-CRL-10317) were cultured in an RPMI medium containing 10% bovine fetal serum (FBS) while maintaining 37° C. and 5% CO2, and then the cells were detached using a 0.05% trypsin-EDTA. 4×10^3 cells calculated by a hematocytometer were inoculated in each well of a 96-well plate containing a 10% FBS containing medium and cultured in a 37° C. incubator containing 5% C2.
(§5) After 24 hours, the medium of each well was exchanged to a new medium containing a control group (0.1% DMSO) and CG-609 prepared in Example 1 or CG-618 prepared in Example 9 as a representative benproperine derivative at concentrations of 1 μM, 5 μM, and 10 μM. Thereafter, the cells were cultured in an incubator at 37° C. and 5% CO2 for 48 hours. Thereafter, […] of WST-1 (Roche) was added to each well and cultured for 2 hours, and then the absorbance was measured at 450 nm using an ELISA reader (Bio-Rad).

[4] = Acute toxicity test for oral administration to rats; settings: rat, in vivo, 1000 mg/kg; SD rats, single oral dose; read-out: Minimum dose (LD50) of oral administration
Protocol: Six-week-old specific pathogen free (SPF) SD-based rats were divided by two per group and then CG-608, CG-609, or CG-618 prepared in Example 1, 2, or 9 was dissolved in distilled water for injection and orally administered to rats once in a dose of 1000 mg/kg.

[5] = test system: skin cancer cell line A375-P; experiment: Trans-well cancer cell migration inhibition, A375-P; type: cell-based; settings: Homo sapiens, A375P; for IC50: Skin cancer cell A375-P, read-out: Concentration inhibiting migration of cancer cells by 50% (IC50 value)
Protocol: as §1, §2, §3

[6] = test system: lung cancer cell line HCC-827; experiment: Trans-well cancer cell migration inhibition, HCC-827; type: cell-based; settings: Homo sapiens, HCC827; for IC50: Lung cancer cell HCC-827, read-out: Concentration inhibiting migration of cancer cells by 50% (IC50 value)
Protocol: as §1, §2, §3

[7] = test system: pancreatic cancer cell line AsPc-1; experiment: Cytotoxicity / proliferation analysis (WST-1), AsPc-1; type: cell-based, human; settings: AsPc-1, FIG. 8
Protocol: as §4, §5

[8] = test system: colon cancer cells DLD-1; experiment: Cancer cell invasion inhibition (Matrigel trans-well), DLD-1; type: cell-based; settings: Homo sapiens, FIG. 8, read-out: Inhibition of cell invasion compared with DMSO-treated control
Protocol: In order to analyze cancer cell invasion inhibitory activity of CG-609 or CG-618 prepared in Example 1 or 9, cell invasion inhibitory activity using a trans-well was measured by targeting colon cancer cell line DLD-1 cells or pancreatic cancer cell line AsPc-1 cells.
Matrigel was diluted by 1/5 using an RPMI medium without FBS and then […] was put into each trans-well. The cells were coated in a […] for 2 hours. The number of DLD-1 cells was measured using a hemocytometer in an RPMI medium without FBS. Thereafter, the coated trans-well was placed on a 24-well plate and 8×10^4 […] of cells were added. In an empty space of the trans-well on the well plate, […] of an RPMI medium having 10% FBS containing (S)-(−)-benproperine was added and cultured in a CO2 incubator at 37° C. for 16 hours. After culture, […] of crystal violet (5 mg/mL of 20% MeOH) was added to each well of the 24-well plate and the trans-well was dyed at room temperature for 30 minutes. The dyed trans-well was washed with PBS and non-migrated cells were wiped off with cotton swabs. The prepared sample was photographed with an inverted microscope mounted with a digital camera (TE 300, Nikon, Japan), and then the number of migrated cells was counted. The degree of inhibiting cell migration was calculated for a group treated with the sample compared to a control group (DMSO).

[9] = test system: normal cells MCF10A; experiment: Cell migration of normal cells MCF10A; type: cell-based; settings: FIG. 2
[10] = test system: pancreatic cancer cell line AsPc-1; experiment: Trans-well cancer cell migration inhibition, AsPc-1; type: cell-based; settings: Homo sapiens, ASPC1; for IC50: Pancreatic cancer cell line AsPc-1, read-out: Concentration inhibiting migration of cancer cells by 50% (IC50 value)
Protocol: as §1, §2, §3

Structure (SMILES) | IC50 [1] | IC50 [2] | Growth of cancer cells [3] | LD50 [4] | IC50 [5] | IC50 [6] | Growth of cancer cells [7] | inhibition at 0.5 µM ([8]; DLD-1, 500 nM) | Cell migration of normal cells [9] | IC50 [10] | Inhibition of cell migration ([1]; DU-145, concentration not given, FIG. 3) | Inhibition of cell migration ([2]; NuGC-3, concentration not given, FIG. 3) | inhibition at 1 µM ([5]; A375-P, 1 μM, FIG. 3) | inhibition at 1 µM ([6]; HCC-827, 1 μM, FIG. 3) | inhibition at 0.1 µM ([8]; DLD-1, 100 nM) | inhibition at 1 µM ([10]; AsPc-1, 1 μM, FIG. 3)
CC1CCCCN1C(C)COc1ccccc1Cc1ccccc1 (racemic) [CG-618, 1-(1-(2-benzylphenoxy)propan-2-yl)-2-methylpiperidine] | 3000 nM | 8000 nM | did not affect the growth | ≥ 1000 mg/kg | 3000 nM | 500 nM | did not affect the growth | ≥ 50% | did not inhibit | 700 nM | – | – | – | – | – | –
C[C@H](COc1ccccc1Cc1ccccc1)N1CCCC[C@@H]1C [CG-609, (S)-1-((R)-1-(2-benzylphenoxy)propan-2-yl)-2-methylpiperidine] | 2000 nM | 5000 nM | did not affect the growth | ≥ 1000 mg/kg | 700 nM | 210 nM | did not affect the growth | – | did not inhibit | 110 nM | ≥ 50% | ≥ 50% | ≥ 50% | ≥ 50% | ≥ 50% | ≥ 50%
